Measurements taken from patent US20240327459A1, “PEPTIDE FRAGMENTS FOR TREATMENT OF DIABETES” (Follicum AB, priority 2018, published 2024).
“Also recorded” adds a separate entry of the source.

Assays:
db/db mice = experiment: HbA1c in db/db mice after 4 weeks of dosing; type: in vivo, mouse; details: 100 nmol/kg subcutaneously, 5 days per week for 4 weeks, vs PBS control
Description: To investigate the long-term effect of FOL-014 and FOL-056 in diabetic mice, db/db mice were dosed with 100 nmol/kg peptide subcutaneously, 5 days per week for 4 weeks. Control mice were injected with PBS. After 4 weeks of treatment the mice were terminated and 25 μl whole blood was immediately frozen for subsequent HbA1c analysis. (FIG. 21).

[1] = tested on: human pancreatic β-cell line 1.2B4; experiment: Insulin secretion from 1.2B4 human β-cells; type: cell-based; details: 100 nM peptide, 16.7 mM glucose, 60 minutes
Description: In order to test the effect of FOL-014 and FOL-056 in human cells, the human pancreatic β-cell line 1.2B4 were cultured at 37° C. and 5% CO2 in RPMI 1640 supplemented with 10% fetal bovine serum, 50 IU/mL penicillin, 50 mg/L streptomycin, 1 mM L-glutamine. 1.2B4 cells were seeded in 24-well plates in RPMI medium and following overnight incubation, the medium was removed before pre-incubation for 40 min at 37° C. in Krebs-Ringer bicarbonate buffer, pH 7.4, supplemented with 10 mM HEPES, 0.1% bovine serum albumin and 1.0 mM glucose. Following pre-incubation, the buffer was exchanged with fresh Krebs-Ringer buffer as described above and supplemented with specific glucose concentrations, 1 mM or 16.7 mM. FOL-014, FOL-056 or Liraglutide was added at a concentration of 100 nM in the presence of 16.7 mM glucose. Immediately after 60 minutes incubation at 37° C., an aliquot of the buffer was removed and frozen for subsequent insulin ELISA assay. (FIG. 18)

human islets = experiment: Insulin secretion from human pancreatic islets; type: cell-based; details: 1 nM peptide, 16.7 mM glucose, 60 minutes, two donors
Description: To investigate the functionality of FOL-056 in human primary tissue, the pancreatic islets from two non-diabetic human donors were used. Islets were picked, aliquoted in groups of 12 and incubated at 37° C. in 1 ml Krebs-Ringer bicarbonate buffer, pH 7.4, supplemented with 10 mM HEPES, 0.1% bovine serum albumin and 1.0 mM glucose. Following pre-incubation, the buffer was exchanged with fresh Krebs-Ringer buffer as described above and supplemented with specific glucose concentrations (1 mM or 16.7 mM), FOL-056 peptides (1 nM) or Liraglutide (100 nM). Immediately after 60 minutes incubation at 37° C., an aliquot of the buffer was removed and frozen for subsequent insulin ELISA assay. (FIG. 19)

[2] = tested on: diet induced obese c57BI6 mice; experiment: Acute insulin response in diet induced obese mice after long term dosing; type: in vivo, mouse; details: 300 nmol/kg subcutaneously 5 days per week, 12 weeks high fat diet; 1 minute after 1 g/kg iv glucose; P=0.01
Description: Materials and methods: To investigate the effects of FOL-056 in vivo in a high fat diet model, wild type c57BI6 mice were subcutaneously dosed 5 days per week with 300 nmol/kg FOL-056, while being fed high fat diet for 12 weeks. Control animals were dosed with PBS.
In diet induced obese c57BI6 mice, untreated or dosed with FOL-056, the fasting plasma insulin levels were measured before as well as 1 minute after an intravenous glucose injection of 1 g/kg. The insulin value measured before the glucose injection was subtracted from the value measured after the injection for each individual mouse in order to obtain the acute insulin response (AIR). (FIG. 20)

INS-1E cells [3] = experiment: Insulin secretion from INS-1E cells (Example 18); type: cell-based, rat; details: 100 nM peptide, high (16.7 mM) glucose buffer, 60 min, vs un-supplemented buffer
Description: To investigate the stimulatory effect of FOL-056 on insulin secretion we used INS-1E cells. The cells were seeded overnight and washed with PBS before pre-incubation for 60 min at 37° C. in Krebs-Ringer bicarbonate buffer (KRB), pH 7.4, supplemented with 10 mM HEPES, 0.1% bovine serum albumin. Following pre-incubation, the buffer was discarded and the INS-1E cells were incubated in fresh KRB buffer supplemented with 10 mM HEPES, 0.1% bovine serum albumin with or without peptide FOL-056. For comparative purposes cells treated with FOL-014 was included. Following 60 min incubation at 37.C, the buffer was removed and frozen for subsequent insulin assay.

INS-1E cells [4] = experiment: Insulin secreting capacity after 72 hours of glucotoxic conditions (Examples 19, 22); type: cell-based, rat; details: Example 19, 20 mM glucose 72 hours with peptide, then 16.7 mM glucose 1 h
Description: To investigate the β-cell protective effect of FOL-056, we subjected INS-1E to cytotoxic levels of glucose for 72 hours. Rat INS-1E cells were seeded in 96-well plates (2×10^3 cells/well) in cRPMI medium. Following 72 hours of incubation, the medium was changed to RPMI containing 20 mM glucose with or without FOL-056 or FOL-014 and were cultured at 37° C. during an additional 72 hours to induce glucotoxicity. RPMI containing 5 mM glucose was included as a low glucose control. Following 72 hours, the medium was removed and the INS-1E cells were equilibrated in Krebs-Ringer bicarbonate buffer (KREB), pH 7.4, (supplemented with 10 mM HEPES, 0.1% bovine serum albumin and 2.8 mM glucose) for 2 hours. After equilibration, the buffer was changed and the INS-1E cells were incubated in KREBs containing 16.7 mM glucose […] during 1 h. Immediately after incubation, an aliquot of the buffer was removed and frozen for subsequent assay of insulin content.
To investigate the β-cell protective effect of several novel peptide fragments derived from FOL-005 and FOL-014, INS-1 cells were subjected to cytotoxic levels of glucose for 72 hours. […] In order to correct for the variance between experiments, all values were normalized to, and expressed as percentage of the average value of the high glucose control in the individual experiments. […]

With “AEIDSIELSYGIK (MISC_FEATURE - peptide) [FOL-056]” the HbA1c (db/db mice) was “reduce the HbA1c in db/db mice as compared with the untreated control group; also recorded: significantly lower HbA1c”, the insulin secretion [1] was “increase the insulin secretion capacity in 1.2B4 human β-cells; also recorded: significantly increased the insulin secretion as compared with cells treated with an un-supplemented high glucose buffer” and the insulin secretion (human islets) was “potentiates the capacity of primary human pancreatic islets to secrete insulin as a response to high glucose levels; also recorded: significantly increased the insulin secretion as compared with cells treated with an un-supplemented high glucose buffer”. For the same sequence, the “acute insulin response (AIR)” value [2] was “significantly improved; also recorded: significantly higher”, the insulin secretion (INS-1E cells [3]) was “secrete significantly more insulin compared to unstimulated control cells; also recorded: significantly increased the insulin secretion as compared with cells treated with an un-supplemented high glucose buffer” and the “insulin secreting ability after glucotoxic conditions” value (INS-1E cells [4]) was “preserves β-cell function as shown by retained glucose induced insulin secretion; also recorded: abolished the glucotoxic effects and retained insulin release at the same level as from β-cells in the low (5 mM) glucose treatment group”.
